pIC50: −log10 of the molar value. Where two headings read alike, the source gives them in different places.
Assays:
[1] = Crystallinity before and after grinding (XRPD, FIG. 38); type: physicochemical; settings: for crystallinity after grinding: grinding with a mortar and pestle for approximately 5 minutes, XRPD FIG. 38
Text: (§1) As shown by the top spectrum, the sharp peaks of the HCl salt of Compound A have flattened out compared to the bottom spectrum. […] The data provide in Table 4 further supports the conclusion that Form A maintains its crystallinity compared to the mesylate salt of Compound A.

MCF7 = experiment: Breast Cancer Cell Proliferation Assay (MCF-7); type: cell-based; settings: 5 days of compound exposure, Cell Titer-Glo
Procedure: MCF7 was expanded and maintained in the medium (Phenol red free DMEM/F12 (Hyclone SH30272.01) NEAA (Gibco 11140-050) Na-pyruvate (Gibco 11360-070) and Re-stripped Charcoal stripped FBS (Gemini 100-119)). The cells were adjusted to a concentration of 3,000 cells per mL in the above media, and the cells were incubated (37° C., 5% CO2). The following day a 10 point, serial dilution of compounds was added to the cells at a final concentration ranging from 10-0.000005 μM for the test compounds (17β-estradiol was used as a control). Additional cells were plated in 30 wells to serve as the day 1 (pretreatment) comparison. After 5 days of compound exposure, Cell Titer-Glo reagent was added to the cells, and the relative luminescence units (RLUs) of each well was determined. Cell Titer-Glo was also added to 32 μL of medium without cells to obtain a background value. The plates were allowed to incubate at room temperature for 10 minutes to stabilize luminescent signal, and the luminescence signal was recorded with EnSpire. The relative increase in cell number of each sample is determined as follows: (RLU sample-RLU background/RLU estrogen only treated cells-RLU background)×100=% inhibition.

[2] = TGA of samples heated to 150° C. (FIG. 34); type: physicochemical
Procedure: FIG. 34 provides a TGA thermogram for (1) Form A for a sample heated to 150° C., and (2) a sample initially dried under vacuum for 3 hours at 40° C.
(§2) Form A retains its crystallinity to a temperature of about 150° C. […] In addition, Form A can be heated to at least to 100° C. that can allow for the removal of any trapped solvent without erosion of purity, which can be beneficial. The purity of initial Form A, Form A after being heated to 100° C., and Form A after being heated to 150° C. are shown.
TGA data were collected using a TA Discovery 5500 TGA from TA Instruments. DSC was performed using a TA Discovery 2500 DSC from TA Instruments.

[3] = Crystallinity / form change upon heating (XRPD); type: physicochemical
Text: For XRPD analysis, PANalytical X'Pert3 X-ray powder diffractometer was used.

[4] = HPLC purity before and after heating to 100° C. and 150° C.; type: physicochemical
Procedure: as §2

[5] = Solid-state storage stability of free base Form I at 5, 40 and 60° C. (HPLC); type: physicochemical; settings: for Area % of A / Purity vs. Initial %: HPLC
Procedure: Form I was stable in its solid state at 5° C. for 7 days, but degraded upon storage at 40° C. and 60° C.
In Table 1, “A” represents Compound A, and the data was obtained via HPLC.

[6] = Crystallinity during sample preparation (XRPD, FIG. 37); type: physicochemical
Text: FIG. 37 provides a representative XRPD pattern of a second HCl salt of Compound A (prior to sample preparation and after re-preparation of the sample).
as §1

CC1Cc2c([nH]c3ccccc23)C(c2c(F)cc(C=CC(=O)O)cc2F)N1C12CC(C1)C2.O=S(=O)(O)O (centres unmarked) [Form A]
Crystallinity ([1]; After grinding for 5 mins.): Decreased crystallinity | Crystallinity ([1]; Initial): Crystalline | crystallinity after grinding [1]: maintain its crystallinity | pIC50 (MCF7): 9.70 | stability after one week (25° C. and 60% relative humidity): stable | stability after one week (40° C. and 75% relatively humidity): stable | degradation (FIG. 34) ([2]; sample heated directly to 150 C): 4.47% | degradation (FIG. 34) ([2]; sample heated to a lower temperature (<100° C.) and then to 150° C.): 3.54% | Form change ([3]; Heated to 100° C.): No | Form change ([3]; Heated to 150° C.): No | temperature to which crystallinity is retained ([3]; XRPD, FIG. 31): about 150 °C | HPLC peak No. 2, RRT 0.55 (degradation) ([4]; After heating to 100° C.): 0.67 | HPLC peak No. 3, RRT 0.59 (degradation) ([4]; After heating to 100° C.): <0.05 | HPLC peak No. 5, RRT 0.90 (degradation) ([4]; After heating to 100° C.): <0.05 | HPLC peak No. 6, RRT 0.94 (degradation) ([4]; After heating to 100° C.): <0.05 | HPLC peak No. 8, RRT 0.97 (degradation) ([4]; After heating to 100° C.): <0.05 | HPLC peak No. 9, RRT 1.00 (Compound A), purity ([4]; After heating to 100° C.): 99.07 | HPLC peak No. 2, RRT 0.55 (degradation) ([4]; After heating to 150° C.): 0.76 | HPLC peak No. 3, RRT 0.59 (degradation) ([4]; After heating to 150° C.): 0.18 | HPLC peak No. 5, RRT 0.90 (degradation) ([4]; After heating to 150° C.): 0.21 | HPLC peak No. 6, RRT 0.94 (degradation) ([4]; After heating to 150° C.): 0.16 | HPLC peak No. 8, RRT 0.97 (degradation) ([4]; After heating to 150° C.): 0.24 | HPLC peak No. 9, RRT 1.00 (Compound A), purity ([4]; After heating to 150° C.): 97.98 | heat-promoted degradation ([4]; HPLC, heated to 100° C. and 150° C.): resistant to heat-promoted degradation | Purity (area %) ([4]; Heated to 100° C.): 99.1 area % | Purity (area %) ([4]; Heated to 150° C.): 98.0 area % | Purity (area %) ([4]; Initial): 99.1 area % | HPLC peak No. 2, RRT 0.55 (degradation) ([4]; Initial (before heating)): 0.67 | HPLC peak No. 3, RRT 0.59 (degradation) ([4]; Initial (before heating)): <0.05 | HPLC peak No. 5, RRT 0.90 (degradation) ([4]; Initial (before heating)): <0.05 | HPLC peak No. 6, RRT 0.94 (degradation) ([4]; Initial (before heating)): <0.05 | HPLC peak No. 8, RRT 0.97 (degradation) ([4]; Initial (before heating)): <0.05 | HPLC peak No. 9, RRT 1.00 (Compound A), purity ([4]; Initial (before heating)): 99.07

CC1Cc2c([nH]c3ccccc23)C(c2c(F)cc(C=CC(=O)O)cc2F)N1C12CC(C1)C2 (centres unmarked) [Form I]
crystallinity upon heating ([3]; XRPD, FIG. 30 (initially, after 1, 3 and 7 days)): lose crystallinity | stability in solid state ([5]; 5° C. for 7 days): stable | Area % of A ([5]; 5° C., 1 Day): 98.24% | Purity vs. Initial % ([5]; 5° C., 1 Day): 99.8% | Area % of A ([5]; 5° C., 3 Days): 98.09% | Purity vs. Initial % ([5]; 5° C., 3 Days): 99.6% | Area % of A ([5]; 5° C., 7 Days): 98.14% | Purity vs. Initial % ([5]; 5° C., 7 Days): 99.7% | Area % of A ([5]; 40° C., 1 Day): 97.60% | Purity vs. Initial % ([5]; 40° C., 1 Day): 99.1% | Area % of A ([5]; 40° C., 3 Days): 96.79% | Purity vs. Initial % ([5]; 40° C., 3 Days): 98.3% | Area % of A ([5]; 40° C., 7 Days): 96.18% | Purity vs. Initial % ([5]; 40° C., 7 Days): 97.7% | Area % of A ([5]; 60° C., 1 Day): 93.42% | Purity vs. Initial % ([5]; 60° C., 1 Day): 94.9% | Area % of A ([5]; 60° C., 3 Days): 88.31% | Purity vs. Initial % ([5]; 60° C., 3 Days): 89.7% | Area % of A ([5]; 60° C., 7 Days): 80.95% | Purity vs. Initial % ([5]; 60° C., 7 Days): 82.2% | degradation ([5]; after 7 days at 40° C.): approximately 2% | degradation ([5]; after 7 days at 60° C.): approximately 18%

C[C@@H]1Cc2c([nH]c3ccccc23)[C@@H](c2c(F)cc(/C=C/C(=O)O)cc2F)N1C12CC(C1)C2 [Free base of Compound A, (E)-3-(4-((1R,3R)-2-(Bicyclo[1.1.1]pentan-1-yl)-3-methyl-2,3,4,9-tetrahydro-1H-pyrido[3,4-b]indol-1-yl)-3,5-difluorophenyl)acrylic acid]
pIC50 (MCF7; Homo sapiens, MCF7, 120 h): 9.40

CC1Cc2c([nH]c3ccccc23)C(c2c(F)cc(C=CC(=O)O)cc2F)N1C12CC(C1)C2.Cl (centres unmarked) [HCl salt of Compound A]
crystallinity during sample preparation [6]: variable crystallinity

CC1Cc2c([nH]c3ccccc23)C(c2c(F)cc(C=CC(=O)O)cc2F)N1C12CC(C1)C2.CS(=O)(=O)O (centres unmarked) [Mesylate salt of Compound A]
Crystallinity ([1]; After grinding for 5 mins.): Amorphous | Crystallinity ([1]; Initial): Crystalline | crystallinity after grinding [1]: loss of crystallinity | Form change ([3]; Heated to 100° C.): No | Form change ([3]; Heated to 150° C.): No | Purity (area %) ([4]; Heated to 100° C.): 98.4 area % | Purity (area %) ([4]; Heated to 150° C.): 97.1 area % | Purity (area %) ([4]; Initial): 98.4 area %

Reference: patent publication US20220389006A1, “SALTS AND FORMS OF AN ESTROGEN RECEPTOR MODULATOR” (Recurium IP Holdings, LLC, priority 2019, published 2022)
